From publication PMC12022980, “Rational Design of PROTAC Linkers Featuring Ferrocene as a Molecular Hinge to Enable Dynamic Conformational Changes” (Journal of the American Chemical Society, 2025) come the findings set out here.

Data set [1] in a line: Mouse liver microsome stability. It counts as in vitro ADME. The conditions noted are these: liver microsomes; for CLint scaled at 1 µM: pH 7.4; for half-life at 1 µM: pH 7.4, read-out: stability T1/2 in mouse microsome. The protocol: Mouse Liver Microsome Stability
Testing compound (1.5 μL) or reference compound (500 μM in 5% iPrOH and 95% acetonitrile) was mixed with 18.75 μL of 20 mg/mL liver microsome (Corning) and 479.75 μL of potassium phosphate buffer (0.1 M potassium phosphate buffer, 1 mM EDTA, pH 7.4). The reaction was started by mixing 30 μL of the above mixture (prewarmed to 37 °C) with 15 μL of 6 mM NADPH stock solution (prewarmed to 37 °C). After incubating for 5, 15, 30, or 45 min, 135 μL of acetonitrile containing internal standard was added to stop the reaction. For 0 min, the compound and microsome mixture were mixed with acetonitrile first before adding NADPH. After quenching, the reaction mixture was centrifuged, and the supernatant was taken and diluted for LC-MS
(In general: Microsomes from liver hold many membrane-bound enzymes, among them those of drug oxidation.)

Data set [2] in a line: LogD7.4 shake flask (octanol/phosphate buffer). It counts as physicochemical. The conditions noted are these: octanol/potassium phosphate buffer, pH 7.4. From the text: The modulation of lipophilicity could play a critical role in optimizing PROTACs. We thus utilized traditionally measured LogD values from shake flask experiments alongside chromatographically assessed ChromLogD values.[72] […] By incorporating ferrocene, permeability may be improved due to the feature of promoting IMHB-mediated compact conformations, while also balancing the lipophilicity of the polar ligand/PEG linkers. However, while sufficient lipophilicity is required for passive uptake over the cell membrane, it may also drive poor aqueous solubility.[73]
(§1) For the permeabilised-cell assay, 10 µL of digitonin was added, and plates were incubated in darkness for 5 minutes to allow permeabilisation. In each well 10 µL of the 10x PROTAC and vehicle control dilutions were dispensed. A 100x NanoBRET tracer solution (50 µM for VHL permeabilised-cell assay) was prepared with 100% DMSO, then diluted to a 20x solution with tracer dilution buffer. A 5 µL volume of tracer was dispensed into each well at a final concentration of 0.5 µM, and the plate was mixed at 300 RPM for 15 seconds. Finally, 50 µL of a 3x substrate solution (8.8 µL NanoBRET Nano-Glo substrate and 3,500 µL Opti-MEM) was added, and plates were incubated for 1 minute at room temperature before reading on a GloMax Discover as […]
HiBiT Lytic Assay with Zosuquidar Co-treatment […]
Luminescence was measured using the GloMax® Multiplex Luminescence and Fluorescence Protocol for 96-well plates. The luminescence signal for each well was normalised to the fluorescence signal and further normalised to the mean values from iPrOH-treated controls, then expressed as a ratio relative to the vehicle control. Curve fitting and DC50 values were determined in GraphPad Prism v.10.0.3 using nonlinear regression with a three-parameter logistic model to calculate DC50 values. […]
(§2) of 1 mL/min and a column temperature of 40 °C. […] Data were analysed with Shimadzu Open Solution Data Browser to obtain the RTs of the peak for each individual compound and standards. […]
ChromLogD values for the compounds were then calculated based on the regression curve. […]

Data set [3] concerns the target T1, VHL (Homo sapiens, UniProt P40337).
T1 construct: host or cells: HEK293, transient transfection
Description: NanoBRET VHL target engagement, permeabilised-cell mode. Format: cell-based. The conditions noted are these: HEK293 transfected with VHL-NanoLuc, tracer 0.5 μM. From the text:
(§3) To this end, we assessed the PROTAC cellular permeability by evaluating VHL target engagement using the Promega NanoBRET TE Intracellular E3 Ligase.[62] Current PROTAC permeability assays use artificial systems like PAMPA and Caco-2, designed for small molecules but not always effective for PROTACs due to their low permeability, high molecular weight and assay caveats (i.e., unspecific binding and low recovery).[63],[64] The NanoBRET assay is a high-throughput method validated for measuring E3 ligase engagement in live and permeabilised cells. The assay allows to rank PROTAC intracellular availability through competitive probe displacement and offers a simple workflow for prioritising compounds based on properties associated with permeability. […] Specifically, in the live-cell mode, the assay measures the apparent cellular affinity, where the plasma membrane is intact and can impede the compound’s access to its target. In the permeabilised-cell mode, the barrier posed by the plasma membrane is removed and the intrinsic affinity of the compound for target is measured. […] The ratio of potencies between live-cell and permeabilised-cell modes, referred to as the relative-binding affinity (RBA) value increases as intracellular availability decreases and is thus a metric for assessing a PROTAC̀s cellular availability. […]
On the technique in general: BRET reads energy transfer from a luciferase to a nearby fluorophore.

Data set [4] is described as follows: ChromLogD (chromatographic). It counts as physicochemical. The conditions noted are these: HPLC on Hypersil GOLD-C18 column, pH 7.4. The protocol: as §1
HiBiT Lytic Assay with Zosuquidar Co-treatment
A modified HiBiT lytic assay was used to assess the activity of zosuquidar on the BET degradation. […]
Luminescence was measured using the GloMax® Multiplex Luminescence and Fluorescence Protocol for 96-well plates. The luminescence signal for each well was normalised to the fluorescence signal and further normalised to the mean values from iPrOH-treated controls, then expressed as a ratio relative to the vehicle control. Curve fitting and DC50 values were determined in GraphPad Prism v.10.0.3 using nonlinear regression with a three-parameter logistic model to calculate DC50 values.
The stock solution of each test item was prepared from a 10mM stock in iPrOH, which was further diluted 1:50 with […] to obtain a 0.2 mM solution (4 µL of the test item stock solution is diluted with 196 µL DMSO) in insert vials. The samples were analysed on an HPLC system equipped with a HPLC-ThermoScientific Hypersil GOLD-C18 column (2.1 x 50 mm, 1.9 µm) and by MS detection using electrospray ionization (ESI) and Atmospheric Pressure Chemical Ionization (APCI) on a Shimadzu LCMS 2050. […]
as §2

Data set [5] concerns the target T1, VHL. Description: NanoBRET VHL target engagement, live-cell mode. The conditions noted are these: for IC50: HEK293 transfected with VHL-NanoLuc, live cells, tracer 1 μM. Format: cell-based.
Source text: as §3

T1 sequence (P40337 whole entry): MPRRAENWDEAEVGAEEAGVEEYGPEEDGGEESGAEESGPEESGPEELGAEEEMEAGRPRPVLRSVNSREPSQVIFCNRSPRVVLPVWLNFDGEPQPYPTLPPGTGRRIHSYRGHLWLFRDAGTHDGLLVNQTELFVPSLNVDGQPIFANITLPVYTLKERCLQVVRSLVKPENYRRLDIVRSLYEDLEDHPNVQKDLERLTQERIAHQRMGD

`Cc1ncsc1-c1ccc(CNC(=O)[C@@H]2C[C@@H](O)CN2C(=O)[C@@H](NC(=O)COCCOCCOCCOCCOCCOCC(=O)N[C@H](C(=O)N2C[C@H](O)C[C@H]2C(=O)NCc2ccc(-c3scnc3C)cc2)C(C)(C)C)C(C)(C)C)cc1` [CM11]: in data set [1], the intrinsic metabolic clearance (CLint scaled) at 1 µM worked out at 212 mL/min/kg and the half-life at 1 µM amounted to 25.8 min. The logD in data set [2] was 2.9. The half-maximal inhibitory concentration (IC50) on VHL [3] was determined as 300 nM. The compound further gave a chromatographic logD in data set [4] of 3.2. Also, on VHL [5], the “AI (availability index = RBAPROTAC ÷ RBAVH298)” value was found to be 1.4, the “RBA (relative binding affinity = IC50live ÷ IC50perm)” value is 1.4 and half-maximal inhibition (IC50) required 450 nM.

For `Cc1ncsc1-c1ccc(CNC(=O)[C@@H]2C[C@@H](O)CN2C(=O)[C@@H](NC(=O)CCCCCOCCOCCCCCC(=O)Nc2cccc3c2C(=O)N(C2CCC(=O)NC2=O)C3=O)C(C)(C)C)cc1` (some centres unmarked) [14a], in data set [1], the intrinsic clearance (CLint scaled) at 1 µM was 5090 mL/min/kg and the half-life at 1 µM was 1.1 min. For the same compound, the log distribution coefficient (logD) in data set [2] was determined as 3.3. This compound yielded an IC50 against VHL [3] of 300 nM. In data set [4], this compound showed a chromatographic logD of 3.7. Besides, on VHL [5], the “AI (availability index = RBAPROTAC ÷ RBAVH298)” value is given as 4.2, the “RBA (relative binding affinity = IC50live ÷ IC50perm)” value worked out at 4.4, the “fold lower potency in live-cell vs permeabilised-cell assay” value is given as 4 fold and half-maximal inhibition (IC50) required 1330 nM.

In general, CLint scaled refers to the rate of metabolic loss divided by the concentration. Read a low CLint scaled as slow turnover. As a reminder, the logD is lipophilicity at a set pH, counting ionised and neutral species. The low end stands for lower lipophilicity, the high end for higher lipophilicity. By IC50 is commonly meant the point on the concentration scale where inhibition reaches its midpoint. A lower IC50 goes with higher potency. As usually defined, the chromatographic logD is a lipophilicity value derived from retention on a column. Higher therefore signals a more lipophilic compound.
